Test results reported in patent US20150299143A1, “SUBSTITUTED TRIAZOLE AND IMIDAZOLE COMPOUNDS” (HOFFMANN-LA ROCHE INC., priority 2012, published 2015).
pIC50: −log10 of the molar value.

Experiments:
[1] = molecular target: T1, β 5i (chymotrypsin-like activity) (Homo sapiens, UniProt P20618+P28062); assay: Cell-Based Proteasome subunit activity/selectivity assay, β5i, substrate (ANW)2Rh110; settings: Ramos cells; substrate (ANW)2Rh110 (β5i); highest concentration tested 20 μM; read-out: Ic50:ramos:ac-(anw)2-r110
T1 construct: protease activity associated with the proteasome complex in cultured cells; endogenous in cells; host or cells: Ramos cells
Procedure, shortened: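 Cell-based fluorogenic assay measuring chymotrypsin-like β5i proteasome activity using the substrate (ANW)2Rh110. Cultured cells received 0.5 μl of 100× 4-fold serial diluted compounds or DMSO per well, were incubated 30 minutes at 37° C, then equilibrated 15 minutes at room temperature. After shaking one minute @ 700 rpm and 120 min room-temperature incubation, fluorescence was read at 500 nm excitation/519 nm emission on an Envision reader.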

[2] = molecular target: T2, β5c (chymotrypsin-like activity) (Homo sapiens, UniProt P20618+P28074); assay: Cell-Based Proteasome subunit activity/selectivity assay, β5c, substrate (WLA)2Rh110; settings: Ramos cells; substrate (WLA)2Rh110 (β5c); highest concentration tested 20 μM; read-out: Ic50:ramos:rh110-(wla)2
T2 construct: protease activity associated with the proteasome complex in cultured cells; endogenous in cells; host or cells: Ramos cells
Procedure, shortened: (§1)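 Subunit activity in cultured cells read with subunit-selective fluorogenic Rh110 substrates: (LLE)2 for β1c, (PAL)2 for β1i, (KQL)2 for β2c/2i, (WLA)2 for β5c. Cells exposed to 4-fold serially diluted compound (top 20 μM) 30 min at 37 °C, then substrate 120 min at room temperature; fluorescence 500/519 nm.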

[3] = system: β 2c/2i (trypsin-like); assay: Cell-Based Proteasome subunit activity/selectivity assay, β2c/2i, substrate (KQL)2Rh110; settings: Ramos cells; substrate (KQL)2Rh110 (β2c/2i); highest concentration tested 20 μM
Procedure, shortened: as §1

[4] = molecular target: T3, β 1i (caspase-like) (Homo sapiens, UniProt P28065+P40306); assay: Cell-Based Proteasome subunit activity/selectivity assay, β1i, substrate (PAL)2Rh110; settings: Ramos cells; substrate (PAL)2Rh110 (β1i); highest concentration tested 20 μM; read-out: Ic50:ramos:rh110-(pal)2
T3 construct: protease activity associated with the proteasome complex in cultured cells; endogenous in cells; host or cells: Ramos cells
Procedure, shortened: as §1

[5] = molecular target: T4, β 1c (caspase-like) (Homo sapiens, UniProt P28072+Q99436); assay: Cell-Based Proteasome subunit activity/selectivity assay, β1c, substrate (LLE)2Rh110; settings: Ramos cells; substrate (LLE)2Rh110 (β1c); highest concentration tested 20 μM; read-out: Ic50:ramos:rh110-(lle)2
T4 construct: protease activity associated with the proteasome complex in cultured cells; endogenous in cells; host or cells: Ramos cells
Procedure, shortened: as §1

[6] = system: Th1/17 differentiation, B cell effector functions and production of inflammatory cytokines (IL-6, TNF-α, IL-23); settings: cited from earlier work
[7] = system: mouse CAIA and CIA arthritis models; settings: cited from earlier work
[8] = system: MRL/lpr lupus-prone mice; settings: cited from earlier work
[9] = system: DSS-induced colitis model in mice; settings: cited from earlier work

| pIC50 [1] | pIC50 [2] | pIC50 [3] | pIC50 [4] | pIC50 [5] | SMILES | block of Th1/17 differentiation, B cell effector functions and production of inflammatory cytokines (IL-6, TNF-α, IL-23) [6] | disease score [7] | disease progression [8] | plasma cells numbers and levels of anti-dsDNA IgG [8] | inflammation and tissue destruction [9] |
| --- | --- | --- | --- | --- | --- | --- | --- | --- | --- | --- |
| 6.62 | ≤ 4.70 | ≤ 4.70 | ≤ 4.70 | ≤ 4.70 | CCc1ccc(C(C#N)NC(=O)c2cn(CCCNC(=O)c3ccc(C(F)(F)F)cc3OC)nn2)cc1 (stereo not shown) [Example 85, 1-[3-(2-Methoxy-4-trifluoromethyl-benzoylamino)-propyl]-1H-[1,2,3]triazole-4-carboxylic acid [cyano-(4-ethyl-phenyl)-methyl]-amide] | – | – | – | – | – |
| 7.14 | ≤ 4.70 | ≤ 4.70 | ≤ 4.70 | ≤ 4.70 | CCc1ccc(C(C#N)NC(=O)c2cn(CCNC(=O)C3=C(C)c4ccccc4C3)nn2)cc1 (stereo not shown) [Example 25, 1-{2-[(3-Methyl-1H-indene-2-carbonyl)-amino]-ethyl}-1H-[1,2,3]triazole-4-carboxylic acid [cyano-(4-ethyl-phenyl)-methyl]-amide] | – | – | – | – | – |
| 6.79 | ≤ 4.70 | ≤ 4.70 | ≤ 4.70 | ≤ 4.70 | COC(=O)[C@H](Cc1cc2ccccc2[nH]1)NC(=O)c1cn(CCNC(=O)c2ccc(C(F)(F)F)cc2F)nn1 [Example 84, (S)-2-({1-[2-(2-Fluoro-4-trifluoromethyl-benzoylamino)-ethyl]-1H-[1,2,3]triazole-4-carbonyl}-amino)-3-(1H-indol-2-yl)-propionic acid methyl ester] | – | – | – | – | – |
| 5.99 | 5.17 | ≤ 4.70 | ≤ 4.70 | 4.77 | CCc1ccc(C(C#N)NC(=O)c2cn(CCNC(=O)c3cncc(Br)c3OC)nn2)cc1 (stereo not shown) [Example 30, 5-Bromo-N-[2-(4-{[cyano-(4-ethyl-phenyl)-methyl]-carbamoyl}-[1,2,3]triazol-1-yl)-ethyl]-4-methoxy-nicotinamide] | – | – | – | – | – |
| 6.82 | ≤ 4.70 | ≤ 4.70 | ≤ 4.70 | ≤ 4.70 | COc1ccc(C(=O)NCCn2cc(C(=O)NC(C#N)c3ccc(SC)cc3)nn2)c(OC)c1OC (stereo not shown) [Example 2, 1-[2-(2,3,4-Trimethoxy-benzoylamino)-ethyl]-1H-[1,2,3]triazole-4-carboxylic acid [cyano-(4-methylsulfanyl-phenyl)-methyl]-amide] | – | – | – | – | – |
| 5.83 | 5.12 | ≤ 4.70 | ≤ 4.70 | ≤ 4.70 | CCc1ccc(C(C#N)NC(=O)c2cn(CCN3Cc4cc(OC)ccc4C3=O)nn2)cc1 (stereo not shown) [Example 47, 1-[2-(5-Methoxy-1-oxo-1,3-dihydro-isoindol-2-yl)-ethyl]-1H-[1,2,3]triazole-4-carboxylic acid [cyano-(4-ethyl-phenyl)-methyl]-amide] | – | – | – | – | – |
| 6.74 | ≤ 4.70 | ≤ 4.70 | ≤ 4.70 | ≤ 4.70 | N#CC(NC(=O)c1cn(CCNC(=O)c2ccc(C(F)(F)F)cc2F)nn1)c1ccc(C(F)(F)F)cc1 (stereo not shown) [Example 73, 1-[2-(2-Fluoro-4-trifluoromethyl-benzoylamino)-ethyl]-1H-[1,2,3]triazole-4-carboxylic acid [cyano-(4-trifluoromethyl-phenyl)-methyl]-amide] | – | – | – | – | – |
| 5.61 | 5.07 | ≤ 4.70 | ≤ 4.70 | ≤ 4.70 | CCc1ccc(C(C#N)NC(=O)c2cn(CC/N=C(\SC)c3ccc(OC)c(OC)c3OC)nn2)cc1 (stereo not shown) [Example 87, N-[2-(4-{[Cyano-(4-ethyl-phenyl)-methyl]-carbamoyl}-[1,2,3]triazol-1-yl)-ethyl]-2,3,4-trimethoxy-thiobenzimidic acid methyl ester] | – | – | – | – | – |
| – | – | – | – | – | COc1ccc(C[C@H](NC(=O)[C@H](C)NC(=O)CN2CCOCC2)C(=O)N[C@@H](Cc2ccccc2)C(=O)[C@@]2(C)CO2)cc1 [PR-957] | potently block | significantly decrease disease score | prevented disease progression | reduced plasma cells numbers and levels of anti-dsDNA IgG | reduced inflammation and tissue destruction |
| 6.02 | ≤ 4.70 | ≤ 4.70 | ≤ 4.70 | 4.75 | COc1ccc(C(C#N)NC(=O)c2cn(CCNC(=O)c3ccc(OC)c(OC)c3OC)nn2)cn1 (stereo not shown) [Example 65, 1-[2-(2,3,4-Trimethoxy-benzoylamino)-ethyl]-1H-[1,2,3]triazole-4-carboxylic acid [cyano-(6-methoxy-pyridin-3-yl)-methyl]-amide] | – | – | – | – | – |
| 7.00 | ≤ 4.70 | ≤ 4.70 | ≤ 4.70 | ≤ 4.70 | COc1ccc(C(=O)NCCn2cc(C(=O)NC(C#N)c3ccc(Br)cc3)nn2)c(OC)c1OC (stereo not shown) [Example 54, 1-[2-(2,3,4-Trimethoxy-benzoylamino)-ethyl]-1H-[1,2,3]triazole-4-carboxylic acid [(4-bromo-phenyl)-cyano-methyl]-amide] | – | – | – | – | – |
